Reference: PubChem BioAssay AID256 (DTP/NCI, 2004)
Values joined by “and” are separate entries in the source; they are usually repeats but may differ in a detail not shown here. Equal entries are not always repeated. Inconclusive results and toxic doses are left out.

Tested on: CD2F1 mice, L1210 leukemia ip, survival T/C
Experiment: NCI In Vivo Anticancer Drug Screen. Data for tumor model L1210 Leukemia (intraperitoneal) in CD2F1 (CDF1) mice
Settings: higher = longer survival
Procedure, shortened: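 Vehicle-treated tumor-bearing mice served as controls (C) for compound-treated mice (T). Reported figure is T divided by C.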

[1] = endpoint: mean survival time, dose: 100.0 mg/kg/injection, schedule: Q04DX003 (ip), vehicle: saline with Tween-80
[2] = endpoint: mean survival time, dose: 200.0 mg/kg/injection, schedule: Q04DX003 (ip), vehicle: saline with Tween-80
[3] = endpoint: mean survival time, dose: 400.0 mg/kg/injection, schedule: Q04DX003 (ip), vehicle: saline with Tween-80
[4] = endpoint: mean survival time, dose: 50.0 mg/kg/injection, schedule: Q01DX009 (ip), vehicle: saline
[5] = endpoint: mean survival time, dose: 100.0 mg/kg/injection, schedule: Q04DX003 (ip), vehicle: Klucel (hydroxypropylcellulose) (HPC)
[6] = endpoint: mean survival time, dose: 75.0 mg/kg/injection, schedule: Q01DX001 (ip), vehicle: saline
[7] = endpoint: mean survival time, dose: 150.0 mg/kg/injection, schedule: Q01DX001 (ip), vehicle: saline
[8] = endpoint: mean survival time, dose: 100.0 mg/kg/injection, schedule: Q01DX009 (ip), vehicle: saline
[9] = endpoint: mean survival time, dose: 200.0 mg/kg/injection, schedule: Q01DX009 (ip), vehicle: saline
[10] = endpoint: mean survival time, dose: 100.0 mg/kg/injection, schedule: Q01DX009 (ip), vehicle: saline with Tween-80
[11] = endpoint: mean survival time, dose: 200.0 mg/kg/injection, schedule: Q01DX009 (ip), vehicle: saline with Tween-80
[12] = endpoint: mean survival time, dose: 400.0 mg/kg/injection, schedule: Q01DX009 (ip), vehicle: saline with Tween-80
[13] = endpoint: mean survival time, dose: 50.0 mg/kg/injection, schedule: Q01DX009 (ip), vehicle: saline with Tween-80
[14] = endpoint: mean survival time, dose: 100.0 mg/kg/injection, schedule: Q04DX002 (ip), vehicle: saline with Tween-80
[15] = endpoint: mean survival time, dose: 200.0 mg/kg/injection, schedule: Q04DX002 (ip), vehicle: saline with Tween-80
[16] = endpoint: mean survival time, dose: 400.0 mg/kg/injection, schedule: Q04DX002 (ip), vehicle: saline with Tween-80
[17] = endpoint: mean survival time, dose: 50.0 mg/kg/injection, schedule: Q04DX002 (ip), vehicle: saline with Tween-80

## CC(=O)C1CCC2c3cc4c(c(C)c3CCC12C)CCC(OC(=O)C1CCCCC1)C4 (centres undefined)
[1]
  T/C: 101 % of control
[2]
  T/C: 101 % of control
[3]
  T/C: 104 % of control

## O=C(Nc1ccc(Cl)c(C(F)(F)F)c1)Nc1c(Oc2ccc(Cl)c(Cl)c2)ccc(Cl)c1S(=O)(=O)O
endpoint: mean survival time, dose: 12.5 mg/kg/injection, schedule: Q01DX009 (ip), vehicle: saline
  T/C: 100 % of control
endpoint: mean survival time, dose: 25.0 mg/kg/injection, schedule: Q01DX009 (ip), vehicle: saline
  T/C: 98 % of control
[4]
  T/C: 100 % of control

## O=C(N/N=C/c1ccc(Cl)c(Cl)c1)c1ccccc1
endpoint: mean survival time, dose: 100.0 mg/kg/injection, schedule: Q01DX009 (ip), vehicle: Klucel (hydroxypropylcellulose) (HPC)
  T/C: 94 % of control
[5]
  T/C: 96 % of control
endpoint: mean survival time, dose: 200.0 mg/kg/injection, schedule: Q01DX009 (ip), vehicle: Klucel (hydroxypropylcellulose) (HPC)
  T/C: 90 % of control
endpoint: mean survival time, dose: 200.0 mg/kg/injection, schedule: Q04DX003 (ip), vehicle: Klucel (hydroxypropylcellulose) (HPC)
  T/C: 88 % of control
endpoint: mean survival time, dose: 400.0 mg/kg/injection, schedule: Q01DX009 (ip), vehicle: Klucel (hydroxypropylcellulose) (HPC)
  T/C: 89 % of control
endpoint: mean survival time, dose: 400.0 mg/kg/injection, schedule: Q04DX003 (ip), vehicle: Klucel (hydroxypropylcellulose) (HPC)
  T/C: 97 % of control

## CCCCCCCCN(CCCCCCCC)CC(O)c1ccc2c(c1)Sc1ccccc1O2 (centres undefined)
[6]
  T/C: 93 % of control
[7]
  T/C: 90 % of control

## O=CNC(Cc1ccc(O)cc1)C(=O)O (centres undefined)
[8]
  T/C: 97 % of control
[9]
  T/C: 94 % of control
endpoint: mean survival time, dose: 400.0 mg/kg/injection, schedule: Q01DX009 (ip), vehicle: saline
  T/C: 89 % of control

## CC(=O)C(C#N)c1c(C)cc(C)cc1C (centres undefined)
endpoint: mean survival time, dose: 37.5 mg/kg/injection, schedule: Q01DX009 (ip), vehicle: saline
  T/C: 96 % of control
endpoint: mean survival time, dose: 75.0 mg/kg/injection, schedule: Q01DX009 (ip), vehicle: saline
  T/C: 98 % of control
endpoint: mean survival time, dose: 150.0 mg/kg/injection, schedule: Q01DX009 (ip), vehicle: saline
  T/C: 96 % of control

## Cn1c(=O)c2[nH]c(Cl)nc2n(C)c1=O
endpoint: mean survival time, dose: 12.5 mg/kg/injection, schedule: Q01DX005 (ip), vehicle: water
  T/C: 92 % of control
endpoint: mean survival time, dose: 25.0 mg/kg/injection, schedule: Q01DX005 (ip), vehicle: water
  T/C: 93 % of control
endpoint: mean survival time, dose: 50.0 mg/kg/injection, schedule: Q01DX005 (ip), vehicle: water
  T/C: 103 % of control
endpoint: mean survival time, dose: 100.0 mg/kg/injection, schedule: Q01DX005 (ip), vehicle: water
  T/C: 87 % of control

## OC1C2c3ccccc3C(c3c2ccc2ccccc32)C1O (centres undefined)
endpoint: median survival time, dose: 25.0 mg/kg/injection, schedule: Q04DX003 (ip), vehicle: saline with Tween-80
  T/C: 100 % of control
endpoint: median survival time, dose: 50.0 mg/kg/injection, schedule: Q04DX003 (ip), vehicle: saline with Tween-80
  T/C: 100 % of control
endpoint: median survival time, dose: 100.0 mg/kg/injection, schedule: Q04DX003 (ip), vehicle: saline with Tween-80
  T/C: 100 % of control
endpoint: median survival time, dose: 200.0 mg/kg/injection, schedule: Q04DX003 (ip), vehicle: saline with Tween-80
  T/C: 88 % of control

## CC(C)(C)N1CCCC1
endpoint: mean survival time, dose: 100.0 mg/kg/injection, schedule: Q04DX003 (ip), vehicle: acetone
  T/C: 96 % of control

## COC(=O)N/N=C/Cc1ccccc1
[10]
  T/C: 93 % of control

## CC[n+]1ccc(Cc2ccc([N+](=O)[O-])cc2)cc1
[5]
  T/C: 105 % of control

## O=C(O)CC[P+](c1ccccc1)(c1ccccc1)c1ccccc1
[10]
  T/C: 95 % of control
[11]
  T/C: 92 % of control
[12]
  T/C: 89 % of control

## NC(C(=O)O)C(N)C(=O)O (centres undefined)
[10]
  T/C: 94 % of control
[11]
  T/C: 96 % of control
[12]
  T/C: 96 % of control

## C[n+]1ccccc1CCC(=O)Nc1ccccc1
endpoint: mean survival time, dose: 25.0 mg/kg/injection, schedule: Q01DX009 (ip), vehicle: saline with Tween-80
  T/C: 103 % of control
[13]
  T/C: 95 % of control
[10]
  T/C: 88 % of control

## CCC1(CC)C=CCC/C1=N\NS(=O)(=O)c1ccc(C)cc1
[13]
  T/C: 95 % of control
[10]
  T/C: 90 % of control
[1]
  T/C: 95 % of control
[11]
  T/C: 93 % of control
[2]
  T/C: 91 % of control

## CCC1COCC1Cc1cncn1C (centres undefined)
[6]
  T/C: 97 % of control
[7]
  T/C: 101 % of control
endpoint: mean survival time, dose: 300.0 mg/kg/injection, schedule: Q01DX001 (ip), vehicle: saline
  T/C: 100 % of control

## CCOC(=O)/C=C/C(C(=O)OCC)C(=O)OCC
[1]
  T/C: 103 % of control
[2]
  T/C: 97 % of control
[3]
  T/C: 101 % of control

## CC1CC(C)(C)OC(C(C)C)O1 (centres undefined)
[14]
  T/C: 96 % of control
[15]
  T/C: 96 % of control
[16]
  T/C: 96 % of control

## CC(C)C(C)/C=C\C(C)C1CCC2C3=CCC4CC(=O)CCC4(C)C3CCC21C (centres undefined)
endpoint: mean survival time, dose: 25.0 mg/kg/injection, schedule: Q01DX001 (ip), vehicle: Klucel (hydroxypropylcellulose) (HPC)
  T/C: 103 % of control
endpoint: mean survival time, dose: 50.0 mg/kg/injection, schedule: Q01DX001 (ip), vehicle: Klucel (hydroxypropylcellulose) (HPC)
  T/C: 96 % of control
endpoint: mean survival time, dose: 100.0 mg/kg/injection, schedule: Q01DX001 (ip), vehicle: Klucel (hydroxypropylcellulose) (HPC)
  T/C: 103 % of control

## O=C1c2ccccc2C(=O)N1CNc1ccc(Cl)cn1
[10]
  T/C: 86 % of control
[1]
  T/C: 97 % of control and 100 % of control
[2]
  T/C: 90 % of control and 98 % of control
[12]
  T/C: 86 % of control
[3]
  T/C: 91 % of control and 102 % of control

## O=C1CCCCCCC(=O)CCCCCC1
endpoint: mean survival time, dose: 12.5 mg/kg/injection, schedule: Q04DX002 (ip), vehicle: saline with Tween-80
  T/C: 105 % of control
endpoint: mean survival time, dose: 25.0 mg/kg/injection, schedule: Q04DX002 (ip), vehicle: saline with Tween-80
  T/C: 101 % of control
[17]
  T/C: 105 % of control

## Nc1cc(Cl)c2ncn(C3OC(CO)C(O)C3O)c2n1 (centres undefined)
[4]
  T/C: 107 % of control
[8]
  T/C: 104 % of control
[9]
  T/C: 104 % of control

## Cc1nnc(-c2ccccc2)c(-c2ccccc2)n1
[17]
  T/C: 103 % of control
endpoint: mean survival time, dose: 100.0 mg/kg/injection, schedule: Q01DX001 (ip), vehicle: saline with Tween-80
  T/C: 93 % of control
[14]
  T/C: 98 % of control
endpoint: mean survival time, dose: 200.0 mg/kg/injection, schedule: Q01DX001 (ip), vehicle: saline with Tween-80
  T/C: 95 % of control
[15]
  T/C: 95 % of control
endpoint: mean survival time, dose: 400.0 mg/kg/injection, schedule: Q01DX001 (ip), vehicle: saline with Tween-80
  T/C: 91 % of control

## NC(=O)c1[nH]cnc1/N=N/N(CCF)CCF
endpoint: mean survival time, dose: 8.8 mg/kg/injection, schedule: Q01DX001 (ip), vehicle: other
  T/C: 121 % of control
endpoint: mean survival time, dose: 30.0 mg/kg/injection, schedule: Q01DX001 (ip), vehicle: other
  T/C: 158 % of control

## CCc1c(C)c(=O)n(C)c2ccccc12
[1]
  T/C: 98 % of control
[2]
  T/C: 101 % of control
[3]
  T/C: 102 % of control

## O=[N+]([O-])c1ccc(N/N=C(\c2ccccc2)C2OCCC2c2ccccc2)c([N+](=O)[O-])c1 (centres undefined)
[1]
  T/C: 97 % of control
[2]
  T/C: 91 % of control
[3]
  T/C: 94 % of control

## Nc1cc2[nH]cnc2c(=O)[nH]1
endpoint: mean survival time, dose: 12.5 mg/kg/injection, schedule: Q01DX009 (ip), vehicle: suspension in saline
  T/C: 105 % of control
endpoint: mean survival time, dose: 25.0 mg/kg/injection, schedule: Q01DX005 (ip), vehicle: saline
  T/C: 97 % of control and 111 % of control
endpoint: mean survival time, dose: 25.0 mg/kg/injection, schedule: Q01DX009 (ip), vehicle: suspension in saline
  T/C: 113 % of control
endpoint: mean survival time, dose: 50.0 mg/kg/injection, schedule: Q01DX005 (ip), vehicle: saline
  T/C: 114 % of control and 119 % of control
endpoint: mean survival time, dose: 400.0 mg/kg/injection, schedule: Q01DX009 (ip), vehicle: suspension in saline
  T/C: 90 % of control

## COC(=O)c1ccc(N(C)C/C(CN2C(=O)c3ccccc3C2=O)=N\O)cc1
endpoint: mean survival time, dose: 75.0 mg/kg/injection, schedule: Q01DX001 (ip), vehicle: other
  T/C: 92 % of control
endpoint: mean survival time, dose: 150.0 mg/kg/injection, schedule: Q01DX001 (ip), vehicle: other
  T/C: 106 % of control

## CCN(CC)CCCN(CC(=O)O)CC(=O)O
endpoint: mean survival time, dose: 100.0 mg/kg/injection, schedule: Q01DX001 (ip), vehicle: saline
  T/C: 103 % of control

## S=c1nn[nH]n1C1CCCCC1
endpoint: mean survival time, dose: 25.0 mg/kg/injection, schedule: Q04DX003 (ip), vehicle: saline with Tween-80
  T/C: 96 % of control
endpoint: mean survival time, dose: 50.0 mg/kg/injection, schedule: Q04DX003 (ip), vehicle: saline with Tween-80
  T/C: 98 % of control
[1]
  T/C: 92 % of control

## CCCCCCCC/C=C\CCCCCCCC(=O)OCCCCCCCC
[14]
  T/C: 95 % of control
[15]
  T/C: 95 % of control
[16]
  T/C: 102 % of control

## COC(=O)C1C(C(=O)OC)C2C3C4C1C1C2C1C43 (centres undefined)
[1]
  T/C: 102 % of control
[2]
  T/C: 102 % of control
[3]
  T/C: 104 % of control
